Results published in patent US8461205B2, “Anthranilic acid derivatives” (Chelsea Therapeutics, Inc., priority 2007, dated 2013).

Key:
[1] = test system: cell proliferation; details: effect stated to be unrelated to DHODH inhibition; cited from earlier work
[2] = target: DHODH (Homo sapiens, UniProt Q02127); assay: DHODH inhibition; type: biochemical
[3] = test system: human T lymphoblast cell line (Jurkat); assay: Inhibition of T-cell proliferation (Jurkat, 3H-TdR incorporation); type: cell-based
Protocol: Inhibition of T cell proliferation was studied in a functional assay. A human T lymphoblast cell line (Jurkat) was cultured in the presence and absence, respectively, of DHODH inhibiting compounds. Jurkat cells were seeded in microtiterplates at a concentration of 5×10^5/mL in RPMI 1640 growth media supplemented with ultraglutamin, 10% fetal calf serum, 1 mM sodium pyruvat, 10 mM HEPES and 0.1 mg/mL gentamycin. A dilution series of ten different concentrations of inhibitor was added to the wells and the plates were kept in a cell incubator for 3 days. At the beginning of the last 4 hours period, the cultures were pulsed with 10 μl/well 0.1 Ci/mmol 3H-TdR and then harvested on filter papers and counted with a ([…]. The IC50 values for each compound were calculated from the obtained dose response curves. Adding uridine to a concentration of about 50 μM in the wells monitored the specificity for the mechanism i.e., the inhibition of cell proliferation is due to DHODH inhibition and not to a general cell toxicity of the compounds. This addition of uridine reverses the anti-proliferative effect by bypassing the DHODH enzyme using an external source of pyrimidine. Results in respect of a number of compounds of the invention are reported as Jurkat IC50 (in μM) in Table 1.
(§1) The inhibition of T cell proliferation was studied in a human T lymphoblast cell line (Jurkat). The IC50 value for each compound was calculated from the dose response curve. Adding uridine was used to monitor the specificity of the DHODH mechanism. The metabolic stability was studied in human liver microsomes. Table 1 exemplifies the invention, without limiting the scope thereof.

[4] = Metabolic stability in human liver microsomes; type: in vitro ADME; details: human in vitro system, cf. Table 1
Protocol: The metabolic stability of the test compounds was determined using human liver microsomes. Incubations were performed with a compound concentration of 0.5 μM and a protein concentration of 1 mg/mL in 50 mM sodium phosphate buffer at physiological pH (7.4) and temperature (37° C.). The incubation mixture was preincubated at 37° C. prior to addition of NADPH (1 mM, final concentration). At several time points during 60 minutes, aliquots were removed and added to a 96 well plate placed on dry ice and deep-frozen. Samples were analyzed with LC-MS for concentration of parent compound. From the slope of the log [parent compound] vs. incubation time regression line, the in vitro half-life […] was determined. The intrinsic clearance (CLint) can be calculated using a modified Michaelis-Menten relationship, i.e., CLint=ln 2/t1/2. The CLint can then be converted to CL by using the well-stirred model of hepatic extraction. A value of 1.24 L/h/kg of the hepatic blood flow in man can be used. Results with respect to a number of compounds of the invention are reported as t1/2 (in minutes) in Table 1.
as §1

Chain of DHODH (Q02127 whole entry, species assumed): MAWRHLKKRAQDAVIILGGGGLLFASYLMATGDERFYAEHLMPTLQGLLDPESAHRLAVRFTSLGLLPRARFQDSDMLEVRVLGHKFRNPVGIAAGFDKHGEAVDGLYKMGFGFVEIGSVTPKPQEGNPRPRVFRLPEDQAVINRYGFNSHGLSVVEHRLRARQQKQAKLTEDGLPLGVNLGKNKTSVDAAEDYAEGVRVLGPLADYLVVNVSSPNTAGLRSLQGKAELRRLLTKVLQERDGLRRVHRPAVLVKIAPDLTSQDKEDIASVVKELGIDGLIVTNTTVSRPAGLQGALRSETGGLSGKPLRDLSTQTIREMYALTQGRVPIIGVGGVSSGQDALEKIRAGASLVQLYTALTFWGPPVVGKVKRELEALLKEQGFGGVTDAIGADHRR

COC(=O)c1cc(OCc2cc(OC)ccc2OC)ccc1NC(C)=O [2-acetylamino-5-(2,5-dimethoxy-benzyloxy)-benzoic acid methyl ester]
inhibition of cell proliferation (in words) [1]: inhibits cell proliferation

COc1ccc(OC)c(COc2ccc(O)c(C(=O)O)c2)c1 [5-(2,5-dimethoxy-benzyloxy)-2-hydroxy-benzoic acid]
activity as DHODH inhibitor (in words) [2]: inactive

COc1ccc(OC)c(COc2ccc(NC(C)=O)c(C(=O)O)c2)c1 [REF 8, 2-acetylamino-5-(2,5-dimethoxy-benzyloxy)-benzoic acid, reference compound]
IC50 ([3]; Homo sapiens, Jurkat cells, 3 days culture, 3H-TdR pulse last 4 hours): 6.2 µM | inhibitory effect on T-cell proliferation (in words) ([3]; Jurkat, cf. Table 1): only a weak inhibitory effect | oxidation half-life / stability towards oxidation by human P450 (in words) [4]: short half-life
